Assay [1] deals with PAF-Induced Bronchoconstriction. The assay can be described thus: PAF-Induced Bronchoconstriction Assay. The format is in vivo, guinea pig. To be noted: Cavia porcellus. On the procedure:
The in vivo ability of compounds to inhibit PAF-induced bronchoconstriction in guinea pigs was assessed by the intravenous and oral routes of administration. The intravenous technique utilized male guinea pigs (Hartley strain, Charles River) weighing 400-600 g. Animals were anesthetized with urethane (2 g/kg) intraperitoneally and a polyethylene cannula was inserted into the jugular vein for intravenous drug administration. Tracheal pressure ([…]) was recorded from a Statham pressure transducer (P 32 AA). Propranolol was administered 5 minutes prior to challenge with PAF. Two minutes later spontaneous breathing was arrested with succinylcholine chloride (1.2 mg/kg) administered intravenously, and the animals were ventilated with a Harvard (Model 680) small animal respirator set at 40 breaths/min and 4.0 cc stroke volume. Control vehicle or test drug was administered through the cannula into the jugular vein 1 minute before the animals were challenged with a maximum constrictory dose of PAF (1.0 μg/kg) given intravenously. The change in tracheal pressure was averaged for four control and four drug-treated animals and percent inhibition was calculated.
For determination of oral activity, animals were dosed with test compound or vehicle two hours prior to challenge with PAF (1.0 μg/kg, i.v.).
The change in tracheal pressure is determined by subtracting the steady state baseline achieved after administration of succinylcholine from the peak bronchoconstriction seen after challenge with PAF. The mean change in tracheal pressure is calculated for each test compound and compared to the mean change in tracheal pressure for the control animals to give the percent inhibition of bronchoconstriction. The standard error is calculated as the standard error of the mean.

The test system of assay [2] is PAF-Induced Platelet Count Decrease. The assay can be described thus: PAF-Induced Platelet Count Decrease. The assay is classed as in vivo, guinea pig. As to conditions: Cavia porcellus, Platelet, 0.25 h; 3 mg/kg, iv; 15 minutes pretreatment time; read-out: PAF-Induced Platelet Count Decrease % Inhibition, i.v. The protocol:
Male Hartley guinea pigs weighing between 500 and 900 grams were fed standard guinea pig chow and tap water ad libitum. PAF was solubilized in ethanol and stored as a 2 mM stock solution at -70° C. The stock solution of PAF was diluted to […] in Tris buffer pH 7.4 and 0.1% BSA for all experiments.
Guinea pigs were anesthetized with urethane (1.6 g/kg, i.p.). A catheter (PE50) was introduced into the right carotid artery for withdrawing blood. A second catheter PE10) was introduced into the jugular vein for injecting drugs and for administering the PAF challenge (75 ng/kg, i.v.). A control blood sample was obtained and platelets were counted in a whole blood platelet analyzer. PAF was then given and blood samples were taken 15, 30, and 60 seconds after the challenge for platelet counts. Fifteen minutes later, selected concentrations of the test compound were solubilized in DMSO and injected intravenously into a group of 4-6 animals. Only one concentration of the test drug was used in each animal group. Fifteen minutes after drug injection, blood samples were taken before and 15, 30, and 60 sec after the PAF challenge, and analyzed for platelet number.
Animals were anesthetized with sodium pentobarbital (35 mg/kg. i.p.) and the carotid artery and jugular vein were cannulated as described above. The cannulae were exteriorized at the base of the neck and the animals were allowed to recover. Conscious, unrestrained guinea pigs which were allowed to recover from surgery for at least 18 hours were used in the experiments. The animals were challenged two times with PAF (120 ng/kg, i.v.); the first to establish a consistent response to PAF and the second to serve as a control from the PAF challenge. Blood samples were taken before and 15, 30, and 45 seconds after PAF challenge and platelets were counted. Thirty minutes after the control PAF challenge, the animals were orally dosed with either gum acacia or the test compound. Animals were then challenged with PAF at 1, 3, 5, and 24 hours after the administration of the drug.
The % change, i.e., the difference in platelet number before and after PAF challenge was calculated by: [formula] The % activity of drug was then determined by
Statistical significance (p≤0.05) of the difference between the mean PAF control and mean drug treated activity was determined with the pared Students's t-test.

Assay [3] concerns the target T1, PAF binding, dog platelets (Canis lupus familiaris, UniProt A0A8I3NSH0).
T1 sequence (A0A8I3NSH0 1-343): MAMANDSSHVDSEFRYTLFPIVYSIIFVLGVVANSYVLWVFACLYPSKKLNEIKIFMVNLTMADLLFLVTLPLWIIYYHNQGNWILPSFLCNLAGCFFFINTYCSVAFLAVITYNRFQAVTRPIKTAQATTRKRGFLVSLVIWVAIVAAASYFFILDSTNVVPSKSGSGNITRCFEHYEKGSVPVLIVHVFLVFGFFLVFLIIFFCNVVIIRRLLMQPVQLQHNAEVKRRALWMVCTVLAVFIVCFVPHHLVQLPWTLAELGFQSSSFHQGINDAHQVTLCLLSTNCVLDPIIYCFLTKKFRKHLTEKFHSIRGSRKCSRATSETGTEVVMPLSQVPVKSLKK
The assay can be described thus: PAF Binding Assay (3H-PAF binding to washed dog platelets). To be noted: 10 minutes at room temperature.
Method: The binding assay was performed in 400 μl polyethylene microcentrifuge tubes (Beckman) containing 50 μl of an oil mixture of 2 parts Siliconol AR200 (Serva): 1 part Silicone Fluid (Arthur H. Thomas). Buffer, standards, or analogs 150 μl total volume) were added to the tubes. Radiolabelled ^3 H-PAF (50 μl) was then added to the tubes. The reaction was started by the addition of 50 μl of dog platelets (2×10^7 platelets). The tubes were capped, inverted several times to mix, and incubated for 10 minutes at room temperature. The platelets were separated from the incubation mixture by centrifuging 1 minute in a Beckman Microfuge B centrifuge. The tip of the microfuge tube was cut off, and the platelets were washed out of the tip with 200 μl of 50% methanol (Burdick and Jackson). Aquasol (NEN, 10 ml) was added and the radioactivity in the samples was determined using an LS 8100 Beckman liquid scintillation counter linked to a Techtran tape recorder. Data was processed through an in-house computer system. Alternatively, radioactivity was determined using a Searle Mark III liquid scintillation counter linked to a Iso-Data microprocessor.
Blood was collected from anesthesized or unanesthesized dogs into 5ml plastic centrifuge tubes containing 3.8% sodium citrate as the anticoagulant (1 volume of citrate/9 volumes of blood). The red cells were removed by centrifugation for 15 minutes at 600 rpm (100-125 g) at room temperature. An aliquot of the supernatant platelet rich Plasma (PRP) was saved for cell counting and the remainder was acidified to pH 6.5 with 0.15M citric acid. The platelet pellet was obtained after a 10 minute centrifugation at 2000 rpm (1000 g) at room temperature. Washed platelets were prepared by resuspending the platelet pellet once with PBS containing 1 mM EDTA, centrifuging as noted, and then resuspending the platelets in 0.1% BSA-PBS. An aliquot of the washed platelets was counted, platelets used for binding assays were diluted to 2×10^7 platelets/assay tube (4×10^8 platelets/ml).

Assay [4] deals with PAF-Induced Platelet Count Decrease. The assay can be described thus: PAF-Induced Platelet Count Decrease. The format is in vivo, guinea pig. To be noted: 30 mg/kg, 2 hours, pretreatment.
Assay [5] addresses T2, Thromboxane Synthase (TXA2 Syn.) (Homo sapiens, UniProt P24557).
T2 construct: microsomal fractions from human platelets as enzyme source; from tissue; host or cells: microsomal fractions from human platelets
T2 sequence (P24557 1-533): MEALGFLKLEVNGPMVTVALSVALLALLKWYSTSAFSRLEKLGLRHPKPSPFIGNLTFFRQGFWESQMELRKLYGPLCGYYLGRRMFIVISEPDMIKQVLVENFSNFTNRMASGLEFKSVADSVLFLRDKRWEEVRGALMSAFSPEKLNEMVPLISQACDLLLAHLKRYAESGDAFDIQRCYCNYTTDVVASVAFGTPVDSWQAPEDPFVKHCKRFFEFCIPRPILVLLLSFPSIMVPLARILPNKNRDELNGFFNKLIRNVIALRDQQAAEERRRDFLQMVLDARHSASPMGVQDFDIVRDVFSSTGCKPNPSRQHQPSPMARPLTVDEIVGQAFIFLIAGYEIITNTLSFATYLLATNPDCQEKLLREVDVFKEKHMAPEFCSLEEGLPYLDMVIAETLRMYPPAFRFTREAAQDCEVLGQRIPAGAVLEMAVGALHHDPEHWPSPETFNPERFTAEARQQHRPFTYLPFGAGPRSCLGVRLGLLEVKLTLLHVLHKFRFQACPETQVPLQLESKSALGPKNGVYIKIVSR
As to the kind of experiment: TXA2 Synthesis Inhibition (thromboxane synthase, microsomal fractions from human platelets). The assay is classed as biochemical. As to conditions: human platelet microsomes, 10 μM 14C-PGH2, 22°, 2 minutes. The protocol: Thromboxane synthase inhibitory activity is measured by following the conversion of ^14 C-[…] using microsomal fractions from human platelets as enzyme source. In the aqueous incubation medium. The TXA2 decomposes rapidly into TXB2 . The amount of TXA2 syn. is adjusted so that under the conditions of the assay approximately 80-90% of the substrate. PGH2, is converted to product in control tubes. To prepare ^14 C-PGH2, ^14 C-AA(50-60mCi/mmole; Rose Chem.) is incubated with sheep seminal vesicular gland microsomes for 1.5 min. at 37° and then the ^14 C-PGH2 is extracted with diethylether, purified on columns of Sephadex LH-20 or silicic acid, and stored in acetone at -70° C. Incubations are done as follows. Sufficient ^14 C-PGH2 to yield a final substrate concentration of 10 μM ( 30,000 cpm) is added to the incubation tubes and then the acetone is removed under nitrogen. The tubes are placed in an ice bath and then 215 μl of ice cold phosphate buffered saline, 10 μof ethanol (control) or of test drug in ethanol, and 25 μl of the microsomal suspension are added with mixing in that order as rapidly as possible. The tubes are incubated at 22° for 2 minutes, the reaction is stopped and then the radioactive products and the unconverted PGH2 are extracted and analyzed by thin layer chromatography. The amount of ^14 C-PGH2 converted to products is analyzed by thin layer chromatography. The amount of ^14 C-PGH2 converted to products was used as a measure of TXA synthase activity. Inhibitors were tested initially at a concentration of 100 μM.

`COc1ccc(-c2ccc(C(=S)NC(C)CCCc3cccnc3)cc2)cc1OC` (racemic) [rac.-3',4'-Dimethoxy-N-[1-methyl-4-(3-pyridinyl)butyl][1,1'-biphenyl]-4-carbothioamide]: the inhibition in vivo at 1 mg/kg in assay [1] (1 min, 1 mg/kg iv, 1 minute pretreatment) was found to be 86 ± 7%. The inhibition in vivo at 50 mg/kg in assay [1] (50 mg/kg, po, 2 hours pretreatment) is 37 ± 9%. Moreover, the inhibition in vivo at 3 mg/kg in assay [2] is 24%. Besides, the IC50 is 0.06 µM in assay [3] and 0.1 to 1 µM in assay [5]. Moreover, the “PAF-Induced Platelet Count Decrease % Inhibition, po” value in assay [4] was found to be 48%.

As a reminder, the IC50 is the point on the concentration scale where inhibition reaches its midpoint. A high value points to weaker potency.

Values taken from patent US4916145A, “Substituted n-[(pyridyl)alkyl]aryl-carboxamide” (Hoffmann-La Roche Inc., priority 1987, dated 1990).
